Test results taken from PubChem BioAssay AID1259407 (Chemical Carcinogenesis Research Information System (CCRIS), 2018).
Calls of active or inactive are those of the source. No rule for the calls is given here.

Tested on: CCRIS mutagenicity, Ames/micronucleus/aberration tests
Experiment: CCRIS mutagenicity studies

Compound: ClC(Cl)=C(Cl)Cl
- mutagenic call (End Point: IN VITRO CHROMOSOMAL ABERRATIONS, Test System: CHINESE HAMSTER OVARY CELLS, Metabolic Activation: NONE): inactive; negative
- mutagenic call (End Point: IN VITRO CHROMOSOMAL ABERRATIONS, Test System: CHINESE HAMSTER OVARY CELLS, Metabolic Activation: RAT, LIVER, S-9, AROCLOR 1254): inactive; negative
- mutagenic call (End Point: IN VITRO CHROMOSOMAL ABERRATIONS, Test System: CHL/IU CELLS, Metabolic Activation: NONE): inactive; negative
- mutagenic call (End Point: IN VITRO CHROMOSOMAL ABERRATIONS, Test System: CHO CELLS, Metabolic Activation: NONE): inactive; negative
- mutagenic call (End Point: IN VITRO CHROMOSOMAL ABERRATIONS, Test System: CHO CELLS, Metabolic Activation: RAT, LIVER, S-9, AROCLOR 1254): inactive; negative
- mutagenic call (End Point: IN VITRO MICRONUCLEUS, Test System: CHL/IU CELLS, Metabolic Activation: NONE): inactive; negative
- mutagenic call (Test System: AMES SALMONELLA TYPHIMURIUM, Strain/Indicator: TA98, Metabolic Activation: HAMSTER, LIVER, S-9, AROCLOR 1254, Method: PREINCUBATION): inactive; negative
- mutagenic call (Test System: AMES SALMONELLA TYPHIMURIUM, Strain/Indicator: TA98, Metabolic Activation: NONE, Method: PREINCUBATION): inactive; negative
- mutagenic call (Test System: AMES SALMONELLA TYPHIMURIUM, Strain/Indicator: TA98, Metabolic Activation: NONE, Method: STANDARD PLATE): inactive; negative
- mutagenic call (Test System: AMES SALMONELLA TYPHIMURIUM, Strain/Indicator: TA98, Metabolic Activation: RAT, LIVER, S-9, AROCLOR 1254, Method: PREINCUBATION): inactive; negative
- mutagenic call (Test System: AMES SALMONELLA TYPHIMURIUM, Strain/Indicator: TA98, Metabolic Activation: RAT, LIVER, S-9, AROCLOR, Method: STANDARD PLATE): inactive; negative
- mutagenic call (Test System: AMES SALMONELLA TYPHIMURIUM, Strain/Indicator: TA100, Metabolic Activation: HAMSTER, LIVER, S-9, AROCLOR 1254, Method: PREINCUBATION): inactive; negative
- mutagenic call (Test System: AMES SALMONELLA TYPHIMURIUM, Strain/Indicator: TA100, Metabolic Activation: HAMSTER, LIVER, S-9, SODIUM PHENOBARBITAL, Method: STANDARD PLATE (SEALED PLATE)): inactive; negative
- mutagenic call (Test System: AMES SALMONELLA TYPHIMURIUM, Strain/Indicator: TA100, Metabolic Activation: MOUSE, LIVER, S-9, SODIUM PHENOBARBITAL, Method: STANDARD PLATE (SEALED PLATE)): inactive; negative
- mutagenic call (Test System: AMES SALMONELLA TYPHIMURIUM, Strain/Indicator: TA100, Metabolic Activation: NONE, Method: BAG VAPORIZATION): inactive; negative
- mutagenic call (Test System: AMES SALMONELLA TYPHIMURIUM, Strain/Indicator: TA100, Metabolic Activation: NONE, Method: PREINCUBATION): inactive; negative
- mutagenic call (Test System: AMES SALMONELLA TYPHIMURIUM, Strain/Indicator: TA100, Metabolic Activation: NONE, Method: SPOT): active; positive
- mutagenic call (Test System: AMES SALMONELLA TYPHIMURIUM, Strain/Indicator: TA100, Metabolic Activation: NONE, Method: STANDARD PLATE): inactive; negative
- mutagenic call (Test System: AMES SALMONELLA TYPHIMURIUM, Strain/Indicator: TA100, Metabolic Activation: NONE, Method: STANDARD PLATE (SEALED PLATE)): inactive; negative
- mutagenic call (Test System: AMES SALMONELLA TYPHIMURIUM, Strain/Indicator: TA100, Metabolic Activation: RAT, KIDNEY, MICROSOMES AND RAT, LIVER, GLUTATHIONE AND GLUTATHIONE TRANSFERASE, Method: PREINCUBATION): active; positive
- mutagenic call (Test System: AMES SALMONELLA TYPHIMURIUM, Strain/Indicator: TA100, Metabolic Activation: RAT, LIVER, S-9, AROCLOR 1254, Method: BAG VAPORIZATION): inactive; negative
- mutagenic call (Test System: AMES SALMONELLA TYPHIMURIUM, Strain/Indicator: TA100, Metabolic Activation: RAT, LIVER, S-9, AROCLOR 1254, Method: PREINCUBATION): inactive; negative
- mutagenic call (Test System: AMES SALMONELLA TYPHIMURIUM, Strain/Indicator: TA100, Metabolic Activation: RAT, LIVER, S-9, AROCLOR, Method: STANDARD PLATE): inactive; negative
- mutagenic call (Test System: AMES SALMONELLA TYPHIMURIUM, Strain/Indicator: TA100, Metabolic Activation: RAT, LIVER, S-9, SODIUM PHENOBARBITAL, Method: STANDARD PLATE (SEALED PLATE)): inactive; negative
- mutagenic call (Test System: AMES SALMONELLA TYPHIMURIUM, Strain/Indicator: TA102, Metabolic Activation: MOUSE, LIVER, S-9, SODIUM PHENOBARBITAL, Method: STANDARD PLATE (SEALED PLATE)): inactive; negative
- mutagenic call (Test System: AMES SALMONELLA TYPHIMURIUM, Strain/Indicator: TA102, Metabolic Activation: NONE, Method: STANDARD PLATE (SEALED PLATE)): inactive; negative
- mutagenic call (Test System: AMES SALMONELLA TYPHIMURIUM, Strain/Indicator: TA102, Metabolic Activation: S-9, Method: STANDARD PLATE): inactive; negative
- mutagenic call (Test System: AMES SALMONELLA TYPHIMURIUM, Strain/Indicator: TA104, Metabolic Activation: MOUSE, LIVER, S-9, SODIUM PHENOBARBITAL, Method: STANDARD PLATE (SEALED PLATE)): inactive; negative
- mutagenic call (Test System: AMES SALMONELLA TYPHIMURIUM, Strain/Indicator: TA104, Metabolic Activation: NONE, Method: STANDARD PLATE (SEALED PLATE)): inactive; negative
- mutagenic call (Test System: AMES SALMONELLA TYPHIMURIUM, Strain/Indicator: TA1535, Metabolic Activation: HAMSTER, LIVER, S-9, AROCLOR 1254, Method: PREINCUBATION): inactive; negative
- mutagenic call (Test System: AMES SALMONELLA TYPHIMURIUM, Strain/Indicator: TA1535, Metabolic Activation: MOUSE, LIVER, S-9, SODIUM PHENOBARBITAL, Method: STANDARD PLATE (SEALED PLATE)): inactive; negative
- mutagenic call (Test System: AMES SALMONELLA TYPHIMURIUM, Strain/Indicator: TA1535, Metabolic Activation: NONE, Method: PREINCUBATION): inactive; negative
- mutagenic call (Test System: AMES SALMONELLA TYPHIMURIUM, Strain/Indicator: TA1535, Metabolic Activation: NONE, Method: STANDARD PLATE (SEALED PLATE)): inactive; negative
- mutagenic call (Test System: AMES SALMONELLA TYPHIMURIUM, Strain/Indicator: TA1535, Metabolic Activation: RAT, LIVER, S-9, AROCLOR 1254, Method: PREINCUBATION): inactive; negative
- mutagenic call (Test System: AMES SALMONELLA TYPHIMURIUM, Strain/Indicator: TA1537, Metabolic Activation: HAMSTER, LIVER, S-9, AROCLOR 1254, Method: PREINCUBATION): inactive; negative
- mutagenic call (Test System: AMES SALMONELLA TYPHIMURIUM, Strain/Indicator: TA1537, Metabolic Activation: NONE, Method: PREINCUBATION): inactive; negative
- mutagenic call (Test System: AMES SALMONELLA TYPHIMURIUM, Strain/Indicator: TA1537, Metabolic Activation: RAT, LIVER, S-9, AROCLOR 1254, Method: PREINCUBATION): inactive; negative
- mutagenic call (Test System: AMES SALMONELLA TYPHIMURIUM, Strain/Indicator: TA2638, Metabolic Activation: S-9, Method: STANDARD PLATE): inactive; negative
- mutagenic call (Test System: AMES SALMONELLA TYPHIMURIUM, Strain/Indicator: UTH8413, Metabolic Activation: NONE, Method: STANDARD PLATE): inactive; negative
- mutagenic call (Test System: AMES SALMONELLA TYPHIMURIUM, Strain/Indicator: UTH8413, Metabolic Activation: RAT, LIVER, S-9, AROCLOR, Method: STANDARD PLATE): inactive; negative
- mutagenic call (Test System: AMES SALMONELLA TYPHIMURIUM, Strain/Indicator: UTH8414, Metabolic Activation: NONE, Method: STANDARD PLATE): inactive; negative
- mutagenic call (Test System: AMES SALMONELLA TYPHIMURIUM, Strain/Indicator: UTH8414, Metabolic Activation: RAT, LIVER, S-9, AROCLOR, Method: STANDARD PLATE): inactive; negative
- mutagenic call (Test System: Ames Salmonella typhimurium, Strain/Indicator: TA98, Metabolic Activation: None, Method: Gas exposure method): inactive; negative (two experiments)
- mutagenic call (Test System: Ames Salmonella typhimurium, Strain/Indicator: TA98, Metabolic Activation: Rat, Liver, S9, Sodium phenobarbital and 5,6-benzoflavone (10%), Method: Gas exposure method): inactive; negative (two experiments)
- mutagenic call (Test System: Ames Salmonella typhimurium, Strain/Indicator: TA100, Metabolic Activation: None, Method: Gas exposure method): inactive; negative (two experiments)
- mutagenic call (Test System: Ames Salmonella typhimurium, Strain/Indicator: TA100, Metabolic Activation: Rat, Liver, S9, Sodium phenobarbital and 5,6-benzoflavone (10%), Method: Gas exposure method): inactive; negative (two experiments)
- mutagenic call (Test System: Ames Salmonella typhimurium, Strain/Indicator: TA1535, Metabolic Activation: None, Method: Gas exposure method): active; positive (two experiments)
- mutagenic call (Test System: Ames Salmonella typhimurium, Strain/Indicator: TA1535, Metabolic Activation: Rat, Liver, S9, Sodium phenobarbital and 5,6-benzoflavone (10%), Method: Gas exposure method): active; positive (two experiments)
- mutagenic call (Test System: Ames Salmonella typhimurium, Strain/Indicator: TA1537, Metabolic Activation: None, Method: Gas exposure method): inactive; negative (two experiments)
- mutagenic call (Test System: Ames Salmonella typhimurium, Strain/Indicator: TA1537, Metabolic Activation: Rat, Liver, S9, Sodium phenobarbital and 5,6-benzoflavone (10%), Method: Gas exposure method): inactive; negative (two experiments)
- mutagenic call (Test System: CHO/HGPRT, Strain/Indicator: CHO/GIEMSA, Metabolic Activation: NONE, Method: STANDARD PLATE): inactive; negative
- mutagenic call (Test System: CHO/HGPRT, Strain/Indicator: CHO/GIEMSA, Metabolic Activation: RAT, LIVER, S-9, AROCLOR 1254, Method: STANDARD PLATE): inactive; negative
- mutagenic call (Test System: E. COLI, Strain/Indicator: WP2 (PKM101), Metabolic Activation: S-9, Method: STANDARD PLATE): inactive; negative
- mutagenic call (Test System: E. COLI, Strain/Indicator: WP2 UVRA (PKM101), Metabolic Activation: S-9, Method: STANDARD PLATE): inactive; negative
- mutagenic call (Test System: E. coli, Strain/Indicator: WP2uvrA/pKM101, Metabolic Activation: None, Method: Gas exposure method): inactive; negative (two experiments)
- mutagenic call (Test System: E. coli, Strain/Indicator: WP2uvrA/pKM101, Metabolic Activation: Rat, Liver, S9, Sodium phenobarbital and 5,6-benzoflavone (10%), Method: Gas exposure method): inactive; negative (two experiments)
- mutagenic call (Test System: MOUSE LYMPHOMA, Strain/Indicator: L5178Y (TK+/TK-), Metabolic Activation: NONE, Method: SUSPENSION/PLATE): inactive; negative
- mutagenic call (Test System: MOUSE LYMPHOMA, Strain/Indicator: L5178Y (TK+/TK-), Metabolic Activation: RAT, LIVER, S-9, AROCLOR 1254, Method: SUSPENSION/PLATE): inactive; negative
